Molecular target: T1, bacteriophage T4 DNA polymerase (Enterobacteria phage T4, UniProt P04415)
T1 construct: made in house
T1 sequence (P04415 1-898): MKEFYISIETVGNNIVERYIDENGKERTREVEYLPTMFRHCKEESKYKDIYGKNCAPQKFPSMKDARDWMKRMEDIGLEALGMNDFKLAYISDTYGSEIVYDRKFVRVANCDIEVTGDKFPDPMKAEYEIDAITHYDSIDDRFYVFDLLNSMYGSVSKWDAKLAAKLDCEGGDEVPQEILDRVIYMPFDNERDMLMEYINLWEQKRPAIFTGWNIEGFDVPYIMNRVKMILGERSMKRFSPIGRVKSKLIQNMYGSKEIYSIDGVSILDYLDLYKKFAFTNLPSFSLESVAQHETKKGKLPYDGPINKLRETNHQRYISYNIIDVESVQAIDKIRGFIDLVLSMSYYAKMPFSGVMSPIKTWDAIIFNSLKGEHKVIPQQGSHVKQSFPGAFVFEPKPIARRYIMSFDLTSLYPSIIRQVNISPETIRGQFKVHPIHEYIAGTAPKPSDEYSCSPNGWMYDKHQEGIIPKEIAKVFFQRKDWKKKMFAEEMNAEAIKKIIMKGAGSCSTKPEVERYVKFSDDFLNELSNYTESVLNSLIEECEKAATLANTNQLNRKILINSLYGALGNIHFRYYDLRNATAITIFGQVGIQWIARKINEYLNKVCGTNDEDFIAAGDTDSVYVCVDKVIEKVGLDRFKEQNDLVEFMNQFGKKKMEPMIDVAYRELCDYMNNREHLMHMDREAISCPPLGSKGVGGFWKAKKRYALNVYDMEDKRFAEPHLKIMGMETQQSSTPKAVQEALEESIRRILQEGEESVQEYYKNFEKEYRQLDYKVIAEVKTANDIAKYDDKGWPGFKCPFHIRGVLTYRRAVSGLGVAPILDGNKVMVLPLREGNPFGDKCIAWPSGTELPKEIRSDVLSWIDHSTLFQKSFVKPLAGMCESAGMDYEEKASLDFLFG
Assay: Counter-screen against bacteriophage T4 DNA polymerase
Assay type: biochemical
Conditions: for % inhibition T4 10' 2.5 / % inhibition T4 10' 5 / % inhibition T4 10' 10 / % inhibition T4 10' 20 / % inhibition T4 10' 40 / % inhibition T4 10' 80: read at 10'; for % inhibition T4 10' 20 / % inhibition T4 70' 20 / % inhibition T4 130' 20 / % inhibition T4 40' 20 / % inhibition T4 90' 20 / % inhibition T4 180' 20: concentration 20; for % inhibition T4 70' 2.5 / % inhibition T4 70' 5 / % inhibition T4 70' 10 / % inhibition T4 70' 20 / % inhibition T4 70' 40 / % inhibition T4 70' 80: read at 70'; for % inhibition T4 130' 2.5 / % inhibition T4 130' 5 / % inhibition T4 130' 10 / % inhibition T4 130' 20 / % inhibition T4 130' 40 / % inhibition T4 130' 80: read at 130'; for % inhibition T4 40' 2.5 / % inhibition T4 40' 5 / % inhibition T4 40' 10 / % inhibition T4 40' 20 / % inhibition T4 40' 40 / % inhibition T4 40' 80: read at 40'; for % inhibition T4 90' 2.5 / % inhibition T4 90' 5 / % inhibition T4 90' 10 / % inhibition T4 90' 20 / % inhibition T4 90' 40 / % inhibition T4 90' 80: read at 90'; for % inhibition T4 180' 2.5 / % inhibition T4 180' 5 / % inhibition T4 180' 10 / % inhibition T4 180' 20 / % inhibition T4 180' 40 / % inhibition T4 180' 80: read at 180'
How it was run: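 Purified T4 DNA polymerase, a B-family enzyme, served as the counter-screen enzyme. Compounds were tested in dose-response format and IC50 values were derived.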

SMILES: COc1ccc(C(=O)N2CCc3c(nc4cc(-c5ccccc5Cl)[nH]n4c3=O)C2)cn1 [Molecule 26, COc1ccc(cn1)C(=O)N1CCc2c(C1)nc1n(c2=O)[nH]c(c1)c1ccccc1Cl]
- % inhibition T4 10' (DRC-2, concentration 2.5): -4%
- % inhibition T4 10' (DRC-2, concentration 10): -17%
- % inhibition T4 40' (DRC-2, concentration 2.5): -4%
- % inhibition T4 40' (DRC-2, concentration 40): -23%
- % inhibition T4 90' (DRC-2, concentration 5): -10%
- % inhibition T4 90' (DRC-2, concentration 80): -23%
- % inhibition T4 180' (DRC-2, concentration 10): -10%
- % inhibition T4 180' (DRC-2, concentration 40): -17%
- % inhibition T4 180' (DRC-2, concentration 80): -17%

SMILES: O=C1c2ccccc2C(=O)N1Oc1ccc([N+](=O)[O-])c([N+](=O)[O-])c1 [Molecule 66, O=N(=O)c1cc(ccc1N(=O)=O)ON1C(=O)c2c(C1=O)cccc2]
- % inhibition T4 10' (DRC-2, concentration 2.5): -5%
- % inhibition T4 10' (DRC-2, concentration 5): -4%
- % inhibition T4 40' (DRC-2, concentration 2.5): -5%
- % inhibition T4 90' (DRC-2, concentration 5): -4%

SMILES: COc1ccccc1CC(=O)N1CCc2c(nc3cc(-c4ccccc4Cl)[nH]n3c2=O)C1 [Molecule 49, COc1ccccc1CC(=O)N1CCc2c(C1)nc1n(c2=O)[nH]c(c1)c1ccccc1Cl]
- % inhibition T4 10' 2.5 (DRC-1, concentration 2.5): -1.17%
- % inhibition T4 10' 5 (DRC-1, concentration 5): -4%
- % inhibition T4 10' 10 (DRC-1, concentration 10): -5.62%
- % inhibition T4 10' 20 (DRC-1): -14%
- % inhibition T4 10' 40 (DRC-1, concentration 40): -19%
- % inhibition T4 10' 80 (DRC-1, concentration 80): -3%
- % inhibition T4 70' 2.5 (DRC-1, concentration 2.5): -2.29%
- % inhibition T4 70' 5 (DRC-1, concentration 5): -6%
- % inhibition T4 70' 10 (DRC-1, concentration 10): -6%
- % inhibition T4 70' 20 (DRC-1): -13%
- % inhibition T4 70' 40 (DRC-1, concentration 40): -18%
- % inhibition T4 70' 80 (DRC-1, concentration 80): -7%
- % inhibition T4 130' 2.5 (DRC-1, concentration 2.5): -4%
- % inhibition T4 130' 5 (DRC-1, concentration 5): -6%
- % inhibition T4 130' 10 (DRC-1, concentration 10): -5%
- % inhibition T4 130' 20 (DRC-1): -12%
- % inhibition T4 130' 40 (DRC-1, concentration 40): -13%
- % inhibition T4 130' 80 (DRC-1, concentration 80): -11%
- % inhibition T4 10' 2.5 (DRC-2, concentration 2.5): -1%
- % inhibition T4 10' 5 (DRC-2, concentration 5): -28%
- % inhibition T4 10' 10 (DRC-2, concentration 10): -40%
- % inhibition T4 10' 20 (DRC-2): -50%
- % inhibition T4 10' 40 (DRC-2, concentration 40): -55%
- % inhibition T4 10' 80 (DRC-2, concentration 80): -54%
- % inhibition T4 40' 2.5 (DRC-2, concentration 2.5): -2.7%
- % inhibition T4 40' 5 (DRC-2, concentration 5): -24%
- % inhibition T4 40' 10 (DRC-2, concentration 10): -34%
- % inhibition T4 40' 20 (DRC-2): -45%
- % inhibition T4 40' 40 (DRC-2, concentration 40): -51%
- % inhibition T4 40' 80 (DRC-2, concentration 80): -47%
- % inhibition T4 90' 2.5 (DRC-2, concentration 2.5): -4%
- % inhibition T4 90' 5 (DRC-2, concentration 5): -22%
- % inhibition T4 90' 10 (DRC-2, concentration 10): -31%
- % inhibition T4 90' 20 (DRC-2): -41%
- % inhibition T4 90' 40 (DRC-2, concentration 40): -49%
- % inhibition T4 90' 80 (DRC-2, concentration 80): -47%
- % inhibition T4 180' 2.5 (DRC-2, concentration 2.5): -9%
- % inhibition T4 180' 5 (DRC-2, concentration 5): -24%
- % inhibition T4 180' 10 (DRC-2, concentration 10): -28%
- % inhibition T4 180' 20 (DRC-2): -39%
- % inhibition T4 180' 40 (DRC-2, concentration 40): -47%
- % inhibition T4 180' 80 (DRC-2, concentration 80): -46%

SMILES: Cc1nc(C)c2c(n1)N(CC1CCCCC1)C(=O)CC2 [KU0218606]
- % inhibition T4 10' 2.5 (DRC-1, concentration 2.5): -4.605%
- % inhibition T4 10' 5 (DRC-1, concentration 5): -3.989%
- % inhibition T4 10' 10 (DRC-1, concentration 10): -2.764%
- % inhibition T4 10' 20 (DRC-1): -3.758%
- % inhibition T4 10' 40 (DRC-1, concentration 40): -2.983%
- % inhibition T4 10' 80 (DRC-1, concentration 80): -2.366%
- % inhibition T4 70' 2.5 (DRC-1, concentration 2.5): -6.824%
- % inhibition T4 70' 5 (DRC-1, concentration 5): -8.391%
- % inhibition T4 70' 10 (DRC-1, concentration 10): -4.959%
- % inhibition T4 70' 20 (DRC-1): -8.03%
- % inhibition T4 70' 40 (DRC-1, concentration 40): -3.675%
- % inhibition T4 70' 80 (DRC-1, concentration 80): -5.307%
- % inhibition T4 130' 2.5 (DRC-1, concentration 2.5): -8.748%
- % inhibition T4 130' 5 (DRC-1, concentration 5): -10.3586%
- % inhibition T4 130' 10 (DRC-1, concentration 10): -7.013%
- % inhibition T4 130' 20 (DRC-1): -9.978%
- % inhibition T4 130' 40 (DRC-1, concentration 40): -5.652%
- % inhibition T4 130' 80 (DRC-1, concentration 80): -8.474%
- % inhibition T4 10' 2.5 (DRC-2, concentration 2.5): 4%
- % inhibition T4 10' 5 (DRC-2, concentration 5): 4.39%
- % inhibition T4 10' 10 (DRC-2, concentration 10): 6%
- % inhibition T4 10' 20 (DRC-2): 5.27%
- % inhibition T4 10' 40 (DRC-2, concentration 40): 12%
- % inhibition T4 10' 80 (DRC-2, concentration 80): 12%
- % inhibition T4 40' 2.5 (DRC-2, concentration 2.5): 4%
- % inhibition T4 40' 5 (DRC-2, concentration 5): 4.39%
- % inhibition T4 40' 10 (DRC-2, concentration 10): 6%
- % inhibition T4 40' 20 (DRC-2): 5.27%
- % inhibition T4 40' 40 (DRC-2, concentration 40): 12%
- % inhibition T4 40' 80 (DRC-2, concentration 80): 12%
- % inhibition T4 90' 2.5 (DRC-2, concentration 2.5): 4%
- % inhibition T4 90' 5 (DRC-2, concentration 5): 5%
- % inhibition T4 90' 10 (DRC-2, concentration 10): 7%
- % inhibition T4 90' 20 (DRC-2): 7%
- % inhibition T4 90' 40 (DRC-2, concentration 40): 11%
- % inhibition T4 90' 80 (DRC-2, concentration 80): 11%
- % inhibition T4 180' 2.5 (DRC-2, concentration 2.5): -0.169%
- % inhibition T4 180' 5 (DRC-2, concentration 5): 0.674%
- % inhibition T4 180' 10 (DRC-2, concentration 10): 3%
- % inhibition T4 180' 20 (DRC-2): 2%
- % inhibition T4 180' 40 (DRC-2, concentration 40): 8%
- % inhibition T4 180' 80 (DRC-2, concentration 80): 8%
